Assay: Solubility of C16TR in propellants
Format: physicochemical
Conditions: HFA134a, HFA227ea, and HFA152a
Source text: C16TR is insoluble in all commercially available propellants (HFA134a, HFA227ea, and HFA152a) and requires the use of alcohol co-solvent. When formulated with DSPE-PEG2000 and PEG400 for use with an MDI as well as desirable in vivo performance, the formulation required approximately 10% of alcohol co-solvent. Such a high level of alcohol co-solvent may lead to reduced chemical stability and aerosol performance. Unexpected improvement in chemical stability was observed when a switch from ethanol (industry standard cosolvent) to isopropyl alcohol (novel excipient) was made, as in the C16TR-MDI-W formulation.

solubility in commercially available propellants: insoluble
SMILES: CCCCCCCCCCCCCCCCOC(=O)COc1cccc2c1C[C@H]1C[C@@H](O)[C@H](CC[C@@H](O)CCCCC)[C@H]1C2 [Formulation C16TR, Treprostinil palmitil]
